Counter-ions that a name gives are not always drawn. Like-named read-outs stand apart in the source and are kept apart here.
Columns and labels:
[1] = system: nAChR evoked release of [3H]-dopamine, rat striatal slices; experiment: Striatal dopamine release assay (nAChR evoked release of [3H]-dopamine from superfused rat striatal slices); assay type: cell-based, rat (male Sprague-Dawley); settings: Table 1, relative to 100 nM (-)-nicotine
Procedure: The protocol for this procedure follows below.
A. Protocol for Determination of Striatal Dopamine Release.
nAChR evoked release of [ring-2,5,6-^3 H]-dopamine (24.4 Ci/mmol) was measured in superfused rat striatal slices. Striata were dissected from two male Sprague-Dawley rats per experiment and sliced 0.35×0.25 mm by a McIlwain Tissue Chopper (Brinkman Instrument Co., Westbury, N.Y.). After two washes with Krebs-HEPES buffer (137 mM NaCl, 4.7 mM KCl, 1 mM MgSO4, 2.5 mM CaCl2, 1.25 mM NaH2 PO4, 10 mM glucose, 15 mM HEPES-NaOH, pH 7.4, containing 10 μM pargyline and 10 μM ascorbic acid), slices were preincubated for 10 minutes at 37° C. under 95%/5% O2 /CO2. After replacing the buffer, slices were labeled with 100 nM [^3 H]-dopamine for 25 min in Krebs-HEPES at 37° C. Aliquots of slices were placed in 18 superfusion chambers of a Brandel SP2000 superfusion apparatus (Brandel, Gaithersberg, Md.). Following 47 minutes of washout, slices were exposed to agonist at various concentrations for 4 minutes. Antagonists or inhibitors, when present were introduced 4 minutes prior to and during agonist exposure. Collected fractions were counted in 5 mL of Ecolume. Tissue was recovered from superfusion chambers, solubilized with 1 mL of Solvable™ (DuPont-NEN) and counted in 15 mL of Ecolume. Fractional release of [^3 H]-dopamine was calculated from radioactivity above baseline as a fraction of total radioactivity.

[2] = target: neuronal nicotinic cholinergic channel receptors; experiment: [3H]-cytisine displacement binding to neuronal nicotinic cholinergic channel receptors; assay type: rat (crude synaptic membranes from whole rat brain); settings: read-out: Receptor Binding Ki
Procedure: B. Protocol For Determination of Nicotinic Cholinergic Channel Receptor Binding Potencies of Ligands
Binding of [^3 H]-cytisine ([^3 H]-CYT) to nicotinic receptors was accomplished using crude synaptic membrane preparations from whole rat brain (Pabreza et al., Molecular Pharmaol., 1990, 39:9). Washed membranes were stored at -80° C. prior to use. Frozen aliquots were slowly thawed and resuspended in 20 volumes of buffer (containing: 120 mM NaCl, 5 mM KCl, 2 mM MgCl2, 2 mM CaCl2 and 50 mM Tris-Cl, pH 7.4 @4° C.). After centrifuging at 20,000×g for 15 minutes, the pellets were resuspended in 30 volumes of buffer. Homogenate (containing […]) was added to triplicate tubes containing concentrations of test compound and [^3 H]-CYT (1.25 nM) in a final volume of 500 μL. Samples were incubated for 60 minutes at 4° C., then rapidly filtered through Whatman GF/B filters presoaked in 0.5% polyethylimine using 3×4 mL of ice-cold buffer. The filters are counted in 4 mL of Ecolume® (ICN). […] Alternately, data were expressed as a percentage of the total specific binding.

[3] = system: release of dopamine and acetylcholine; settings: cited from earlier work
[4] = cited from earlier work
dopaminergic neurons = settings: animals with induced brain injuries; cited from earlier work
heart = settings: in vivo; cited from earlier work
[5] = in vivo; cited from earlier work
[6] = transdermal patches; cited from earlier work
[7] = acutely- and chronically-administered; also observed in aged animals; cited from earlier work
[8] = system: cholinergic ligand-gated channels, PC12 cells; experiment: Cholinergic channel activation in PC12 cells (whole-cell patch-clamp); assay type: cell-based
From the text: D. Protocols for the Determination of Cholinergic Channel Activation in PC12 Cells.
The cholinergic channel activator properties of Example 9 were investigated in PC12 cells using the whole-cell patch-clamp approach to measure current flow through ligand-gated membrane channels.

[9] = example concentration * = 10 μM
[10] = Table 1, [3H]-cytisine 1.25 nM, 60 min at 4° C.
[11] = example concentration ** = 1 μM
[12] = example concentration *** = 0.1 μ
[13] = Table 2, [3H]-cytisine 1.25 nM, 60 min at 4° C.

Q: For CN1CCC[C@@H]1COc1cccnc1.Cl [Example 1, 3-((1-methyl-2-(R)-pyrrolidinyl)methoxy)pyridine hydrochloride], which “Dopamine Release relative to Nicotine” value [1, 9] is on record?
A: 0.08

Q: What about the Ki [2, 10] of the same compound?
A: 23 nM

Q: Which results are given for CN1CCC[C@H]1COc1cnc2ccccc2c1.Cl [Example 31, 3-(1-methyl-2-(S)-pyrrolidinylmethoxy)quinoline hydrochloride]?
A: Dopamine Release relative to Nicotine [1, 9]: 0.15; Ki [2, 10]: 0.7 nM

Q: Which “release of dopamine and acetylcholine” value [3] does the source give for C[C@H](N)Cc1ccccc1 [d-amphetamine] here?
A: enhance the release of dopamine and acetylcholine

Q: With Clc1ccc(OC[C@@H]2CCN2)cn1 [Example 52, 3-(2-(S)-azetidinylmethoxy)-6-chloropyridine dihydrochloride] as the compound, how does the “Dopamine Release relative to Nicotine” value [1, 9] read?
A: 1.0

Q: And the Ki [2, 10]?
A: 0.04 nM

Q: Which “Dopamine Release relative to Nicotine” value [1, 9] does the source give for CCN1CCC[C@H]1COc1cccnc1.Cl.Cl [Example 38, 3-((1-ethyl-2(S)-pyrrolidinyl)methoxy)pyridine dihydrochloride] here?
A: 0.6

Q: What about the Ki [2] of the same compound?
A: 13 nM

Q: For Cc1ccc(OC[C@H]2CCCN2)cn1.Cl.Cl [Example 37, 6-methyl-3-(2-(R)-pyrrolidinylmethoxy)pyridine dihydrochloride], which “Dopamine Release relative to Nicotine” value [1, 9] is on record?
A: 0.8

Q: And the Ki [2]?
A: 0.5 nM

Q: For CN1CCCC1c1cccnc1 (single isomer, unassigned; (-)) [(-)-nicotine], which oral bioavailability [4] is on record?
A: poor oral bioavailability

Q: What about the “pre-synaptic loss of functional dopaminergic neurons” value (dopaminergic neurons) of the same compound?
A: can prevent pre-synaptic loss of functional dopaminergic neurons

Q: What about the “cardiac workload and oxygen demand” value (heart) of the same compound?
A: increasing cardiac workload and oxygen demand

Q: What about the sensory-gating impairments [5] of the same compound?
A: normalize sensory-gating impairments

Q: What about the “symptoms of ADD” value [6] of the same compound?
A: improve the symptoms of ADD

Q: What about the “release of dopamine and acetylcholine” value [3] of the same compound?
A: enhance the release of dopamine and acetylcholine

Q: And the cognitive function [7]?
A: enhances cognitive function in rats

Q: Which results are given for Cc1ccncc1OC[C@@H]1CCCN1C.Cl.Cl [Example 46, 4-methyl-3-((1-methyl-2-(S)-pyrrolidinyl)methoxy)pyridine dihydrochloride]?
A: Dopamine Release relative to Nicotine [1, 9]: 0.85; Ki [2, 10]: 4 nM

Q: Which results are given for CN1CC[C@H]1COc1cnccn1.Cl.Cl [Example 8, 2-((1-methyl-2-(S)-azetidinyl)methoxy)pyrazine dihydrochloride]?
A: Dopamine Release relative to Nicotine [1, 11]: 0.55; Ki [2, 10]: 33 nM

Q: For CN1CC[C@H]1COc1cccnc1.Cl.Cl [Example 10, 3-((1-methyl-2-(S)-azetidinyl)methoxy)pyridine dihydrochloride], which “Dopamine Release relative to Nicotine” value [1, 9] is on record?
A: 1.0

Q: What about the Ki [2] of the same compound?
A: 0.25 nM

Q: For Cc1ccc(OC[C@@H]2CCCN2C)cn1.Cl.Cl [Example 19, 6-methyl-3-((1-methyl-2-(S)-pyrrolidinyl)methoxy)pyridine dihydrochloride], which “Dopamine Release relative to Nicotine” value [1, 12] is on record?
A: 0.78

Q: What about the Ki [2] of the same compound?
A: 1.47 nM

Q: With CN1CCC[C@H]1COc1cncc(Cl)c1.Cl.Cl [Example 16, 5-chloro-3-((1-methyl-2-(S)-pyrrolidinyl)methoxy)pyridine dihydrochloride] as the compound, how does the “Dopamine Release relative to Nicotine” value [1, 11] read?
A: 1.0

Q: Which “Dopamine Release relative to Nicotine” value [1, 9] does the source give for CN1CCC[C@H]1COc1cccnc1.O=C(O)/C=C/C(=O)O [Example 4, 3-((1-methyl-2-(S)-pyrrolidinyl)methoxy)pyridine fumarate] here?
A: 1.0

Q: What about the Ki [2] of the same compound?
A: 0.2 nM

Q: Which “cholinergic channel activator properties (current flow through ligand-gated channels)” value [8] does the source give for Cl.Cl.c1cncc(OC[C@@H]2CCN2)c1 [Example 9, 3-(2-(S)-azetidinylmethoxy)pyridine dihydrochloride] here?
A: clear agonist activity

Q: What about the “Dopamine Release relative to Nicotine” value [1, 9] of the same compound?
A: 1.0

Q: What about the Ki [2, 10] of the same compound?
A: 0.05 nM

Q: With COC(=O)C(c1ccccc1)C1CCCCN1 (centres unmarked) [methylphenidate] as the compound, how does the “release of dopamine and acetylcholine” value [3] read?
A: enhance the release of dopamine and acetylcholine

Q: Which “Dopamine Release relative to Nicotine” value [1, 9] does the source give for Cc1ccc(OC[C@@H]2CCN2C)cn1.Cl.Cl [Example 59, 3-((1-methyl-2-(S)-azetidinyl)methoxy)-6-methylpyridine dihydrochloride] here?
A: 0.7

Q: What about the Ki [2, 10] of the same compound?
A: 4.5 nM

Q: Which “Dopamine Release relative to Nicotine” value [1, 12] does the source give for Cc1ccc(OC[C@@H]2CCCN2)cn1.Cl.Cl [Example 18, 6-methyl-3-(2-(S)-pyrrolidinylmethoxy)pyridine dihydrochloride] here?
A: 1.0

Q: What about the Ki [2] of the same compound?
A: 0.28 nM

Q: For Brc1cncc(OC[C@@H]2CCCN2)c1 [Example 65, 5-bromo-3-(2-(S)-pyrrolidinylmethoxy)pyridine dihydrochloride], which Ki [2, 13] is on record?
A: 0.6 nM

Q: With CN1CCC[C@H]1CCOc1ccc(Cl)nc1 [Example 105, 3-(2-(1-methyl-2-(S)-pyrrolidinyl)ethoxy-6-chloropyridinedihydrochloride] as the compound, how does the Ki [2, 13] read?
A: 33.1 nM

Q: For CC[C@@H]1C[C@@H](COc2cccnc2)N(C)C1 [Example 25, 3-((trans-1-methyl-4-ethyl-2(S)-pyrrolidinyl)methoxy)pyridine dihydrochloride], which Ki [2] is on record?
A: 14.7 nM

Q: What does the source list for O=C(O)/C=C/C(=O)O.c1cncc(OC[C@@H]2CCCN2)c1 [Example 14, 3-(2-(S)-pyrrolidinylmethoxy)pyridine fumarate]?
A: Dopamine Release relative to Nicotine [1, 11]: 1.0; Ki [2]: 0.14 nM

Q: With Cl.Cl.Clc1cncc(OC[C@H]2CCCN2)c1 [Example 33, 5-chloro-3-(2-(R)-pyrrolidinylmethoxy)pyridine dihydrochloride] as the compound, how does the “Dopamine Release relative to Nicotine” value [1, 11] read?
A: 0.62

Q: And the Ki [2, 10]?
A: 0.2 nM

Q: Which Ki [2] does the source give for CN1CCC[C@H]1COc1cncc2ccccc12 [Example 32, 4-(1-methyl-2-(S)-pyrrolidinylmethoxy)isoquinoline hydrochloride] here?
A: 110 nM

Q: With CO[C@H]1CN[C@H](COc2cccnc2)C1 [Example 74, 3-((trans-4-methoxy-2-(S)-pyrrolidinyl)methoxy)pyridine dihydrochloride] as the compound, how does the Ki [2, 13] read?
A: 59 nM

Q: For Cc1ccncc1OC[C@@H]1CCN1 [Example 64, 4methyl-3-(2-(S)-azetidinylmethoxy)pyridine dihydrochloride], which Ki [2, 13] is on record?
A: 224 nM

Q: For Clc1cncc(OC[C@@H]2CCN2)c1 [Example 39, 5-chloro-3-(2-(S)-azetidinylmethoxy)pyridine dihydrochloride], which Ki [2, 13] is on record?
A: 0.04 nM

Q: For CN1CCC[C@H]1COc1cncc(Br)c1 [Example 28, 5-bromo-3-((1-methyl-2-(S)-pyrrolidinyl)methoxy)pyridine dihydrochloride], which Ki [2] is on record?
A: 0.23 nM

Q: For CC(Oc1cccnc1)[C@@H]1CCCN1C (stereo partly drawn) [Example 6, 3-(a-methyl-(1-methyl-2-(S)-pyrrolidinyl)methoxy)pyridine hydrochloride], which Ki [2] is on record?
A: 6.7 nM

Reference: patent US5948793A, “3-pyridyloxymethyl heterocyclic ether compounds useful in controlling neurotransmitter release” (Abbott Laboratories, priority 1995, dated 1999)
